The subject of assay [1] is trained panelists. Nature of the assay: time-intensity analysis of cooling, lozenge application. The settings on record: 4-minute window. Type of assay: in vivo. The procedure:
In order to evaluate the potential use of menthol glycinates as […] different food, beverage and oral hygiene products, select compounds were incorporated in different application systems. A beverage model system, a lozenge and a mouthwash application were created, and time-intensity analysis was performed using trained discrimination analysis panelists. Time-Intensity (TI) is a temporal sensory method. During TI evaluations, assessors are asked to score the intensity of perception of a single attribute over consumption of the product. Compared to single point measurements, TI analysis can characterize the onset, decline and rates thereof, of particular sensory characteristics. This analysis may reveal rich information regarding the intensity of an attribute over the time domain and identify temporal perceptual differences among samples that can greatly impact the overall profile of a product. For each sample evaluation, a temporal curve is generated, based on duplication. The temporal curves for each panelist are combined to generate a combined curve for each product that is evaluated. The following distinct parameters were calculated: Imax: peak intensity or maximum observed intensity on the whole curve; […]: time point where the reaction to the stimulus is first perceived on the curve; Tmax: time position of the peak intensity on the curve; Tplateau: protraction of maximum intensity or duration of maximum intensity; Text: time point of extinction of the perception of the stimulus, defined as the position in time after the peak intensity where the measured intensity disappears (or the end of evaluation window); Iext: intensity at time of extinction or end of evaluation; R increase: slope or rate of intensity increase between […] and Tmax; R decrease: slope or rate of intensity decrease between Tmax and Text; and Area: the total area under the time-intensity curve. The formula detailed in Table 4 was employed to create the lozenge application to evaluate menthol glycinates of interest using time-intensity analysis. [table] For time-intensity (T-I) evaluation of the cooling intensity of lozenges, 9 panelists were recruited (3 male, 6 female). Panelists were trained in basic taste descriptive analysis. A sweetness reference series (intensity range 2-12) was provided to be used as cross-modality reference to aid in scaling the intensity of the cool attribute present in the lozenge samples. Panelists evaluated samples in duplicates and all samples were presented blinded and in a randomized order using a 3-digit code. Panelists were instructed to provide cooling intensity at predetermined time points throughout an evaluation window of 4 minutes. […] Evaluations were performed with at least 4 hours between them to ensure no carry over. Data analysis for generation of T-I statistics and ANOVA analysis to determine significant difference among samples was performed using R STUDIO.

Assay [2] concerns trained panelists. Nature of the assay: time-intensity analysis of cooling, mouthwash application. It is filed as in vivo. The settings on record: for Iext (cooling intensity at end of evaluation): 15 minutes after expectoration. The procedure:
In order to evaluate the potential use of menthol glycinates as […] different food, beverage and oral hygiene products, select compounds were incorporated in different application systems. A beverage model system, a lozenge and a mouthwash application were created, and time-intensity analysis was performed using trained discrimination analysis panelists. Time-Intensity (TI) is a temporal sensory method. During TI evaluations, assessors are asked to score the intensity of perception of a single attribute over consumption of the product. Compared to single point measurements, TI analysis can characterize the onset, decline and rates thereof, of particular sensory characteristics. This analysis may reveal rich information regarding the intensity of an attribute over the time domain and identify temporal perceptual differences among samples that can greatly impact the overall profile of a product. For each sample evaluation, a temporal curve is generated, based on duplication. The temporal curves for each panelist are combined to generate a combined curve for each product that is evaluated. The following distinct parameters were calculated: Imax: peak intensity or maximum observed intensity on the whole curve; […]: time point where the reaction to the stimulus is first perceived on the curve; Tmax: time position of the peak intensity on the curve; Tplateau: protraction of maximum intensity or duration of maximum intensity; Text: time point of extinction of the perception of the stimulus, defined as the position in time after the peak intensity where the measured intensity disappears (or the end of evaluation window); Iext: intensity at time of extinction or end of evaluation; R increase: slope or rate of intensity increase between […] and Tmax; R decrease: slope or rate of intensity decrease between Tmax and Text; and Area: the total area under the time-intensity curve. The formula shown in Table 8 was employed to create a mouthwash product to evaluate […] of interest using time-Intensity analysis. [table] The following test compounds were evaluated: menthol, XI-I-60, RK-2-10, XI-I-65, DK-1-50, and XI-2-73. For time-intensity (T-I) evaluation of the cooling attributes of mouthwash products, 8 panelists were recruited (2 male, 6 female). Panelists were trained in basic taste descriptive analysis. A sweetness reference series (intensity range 2-12) was provided to be used as cross-modality reference to aid in scaling the intensity of the cooling attribute present in the mouthwash samples. Panelists evaluated samples in duplicates and all sample were presented blinded and in a randomized order using a 3-digit code. Panelist evaluated 15 ml of mouthwash at a time and were instructed to rinse for 30 seconds and expectorate. Panelists were instructed to provide cooling intensities before and after expectoration. For the time before expectoration, evaluation started upon introducing the sample and every 10 seconds thereafter. After expectoration, the evaluation continued for 15 minutes and panelists provided cooling intensity ratings at predetermined times. Due to the unique nature of this product and the interest in prolonging the cooling attribute long after consumption, an additional parameter led was evaluated among samples via ANOVA. This parameter is the cooling intensity at time of extinction or in our case the end of evaluation. Data analysis for generation of T-I statistics and ANOVA analysis to determine significant difference among samples was performed using R STUDIO.

The conditions of assay [3]: estimated, relative to menthol; cited from earlier work.
Where [4] appears, read: after expectoration for 15 minutes (Table 9b).
Where [5] appears, read: rinse phase 30 seconds (Table 9a).

Marks after values point to notes of the source that are not given here.

As to `CC(C)NCC(=O)O[C@@H]1C[C@H](C)CC[C@H]1C(C)C` [Product 7, (1R,2S,5R)-2-Isopropyl-5-methylcyclohexyl 2-(isopropylamino)acetate], the “Tstart (time cooling first perceived)” value in the assay with trained panelists [1] was “significantly delayed cooling onset”. Also, in the assay on trained panelists [2], the “Iext (cooling intensity at end of evaluation)” value (shortened to “Iext”) is listed as “significantly higher cooling intensity”. The AUC result in the assay on trained panelists [2] (setting [4]) was “significantly higher”. Besides, in the assay with trained panelists [2] (setting [5]), the Imax result is “trending higher” and the Rdec result is on record as “significantly lower R decrease”.

In the case of `CC(C)[C@@H]1CC[C@@H](C)C[C@H]1OC(=O)CNC1CC1` [Product 12, (1R,2S,5R)-2-isopropyl-5-methylcyclohexyl 2-(cyclopropylamino)acetate], the “AUC (total area under time-intensity curve)” value in the assay with trained panelists [1] is given as “not significantly different than menthol”. Besides, the “Iext” value in the assay with trained panelists [2] (listed as XI-1-66) is “significantly higher cooling intensity”; with trained panelists [2] (listed as XI-I-65), 2.18^b. Moreover, the AUC was 5211.25^bc with trained panelists [2] (setting [4]) and 186.88^a in the assay on trained panelists [2] (setting [5]). In the assay on trained panelists [2] (setting [4]), the I max is 13.20^ab. Besides, the Rdec in the assay with trained panelists [2] (setting [4]) is recorded as −0.01^b; with trained panelists [2] (rinse phase 30 seconds (Table 9a), listed as XI-165) it was “significantly lower R decrease”; in the assay on trained panelists [2] (rinse phase 30 seconds (Table 9a), listed as XI-I-65), 0.00^b. In addition, in the assay on trained panelists [2] (setting [4]), the Tmax is reported as 32.50^a. For the same compound, the Tstart was 30.00^a in the assay with trained panelists [2] (setting [4]) and 10.00^a in the assay on trained panelists [2] (setting [5]). The Rinc in the assay with trained panelists [2] (after expectoration for 15 minutes (Table 9b), listed as XI-I-65) was 0.03^b; with trained panelists [2] (after expectoration for 15 minutes (Table 9b), listed as XI-I-66), “positive and significantly higher compared to that of menthol”; with trained panelists [2] (setting [5]), 0.23^a.

In the case of `CC(C)[C@@H]1CC[C@@H](C)C[C@H]1C(=O)NCCc1ccccn1` [amide 19], the “times cooler than menthol (cooling potential)” value in assay [3] is given as “about 100 times”.

With `Cc1cc2ccccc2n1CCNC(=O)[C@@H]1C[C@H](C)CC[C@H]1C(C)C` [compound 1], in assay [3], the “times cooler than menthol (cooling potential)” value is given as approximately 1000 times.

Consider “(1R,2S,5R)-2-Isopropyl-5-methylcyclohexyl 2-(benzyl(methyl)amino)acetate [Product 15]”, for which the “Iext” value in the assay with trained panelists [2] is on record as 0.67^a. Moreover, in the assay on trained panelists [2] (setting [4]), the AUC is reported as 4082.50^ac, the I max is given as 13.50^ab, the Rdec is −0.01^b and the Tmax is 32.50^a. Moreover, the Tstart in the assay with trained panelists [2] (setting [4]) was 30.00^a. Besides, in the assay on trained panelists [2] (setting [5]), the AUC is 179.79^a, the Rinc is 0.21^a and the Tstart is 10.00^a.

As for “(1R,2S,5R)-2-isopropyl-5-methylcyclohexyl 2-(cyclopropylamino)acetate [Product 12]”, in the assay on trained panelists [1], the “AUC (total area under time-intensity curve)” value was 1945.31^bc, the “RDec (rate of intensity decrease)” value is recorded as 0.042^ab, the “RInc (rate of intensity increase)” value is 0.042^ab and the “Tmax (time of peak intensity)” value is reported as 206.25^a.

The values above are taken from patent publication US20210093531A1, “DERIVATIVES OF MENTHOL AND USES THEREOF” (Board of Trustees of Northern Illinois University, priority 2019, published 2021).
